Data as given in patent US6884820B2, “5,6,7,8-tetrahydronaphthalen-2-yl-7-fluoroalkyl-heptatrienoic acid derivatives having serum glucose reducing activity” (Allergan, Inc., priority 2003, dated 2005).

Tests used:
RXRα [1] = molecular target: T1, RXRα (Homo sapiens, UniProt P19793); assay: holoreceptor transactivation assay, RXRα; conditions: for RXR α transactivation efficacy as a percentage compared to the standard compound: value in parentheses, relative to standard compound of U.S. Pat. No. 6,114,533
T1 sequence (P19793 1-462): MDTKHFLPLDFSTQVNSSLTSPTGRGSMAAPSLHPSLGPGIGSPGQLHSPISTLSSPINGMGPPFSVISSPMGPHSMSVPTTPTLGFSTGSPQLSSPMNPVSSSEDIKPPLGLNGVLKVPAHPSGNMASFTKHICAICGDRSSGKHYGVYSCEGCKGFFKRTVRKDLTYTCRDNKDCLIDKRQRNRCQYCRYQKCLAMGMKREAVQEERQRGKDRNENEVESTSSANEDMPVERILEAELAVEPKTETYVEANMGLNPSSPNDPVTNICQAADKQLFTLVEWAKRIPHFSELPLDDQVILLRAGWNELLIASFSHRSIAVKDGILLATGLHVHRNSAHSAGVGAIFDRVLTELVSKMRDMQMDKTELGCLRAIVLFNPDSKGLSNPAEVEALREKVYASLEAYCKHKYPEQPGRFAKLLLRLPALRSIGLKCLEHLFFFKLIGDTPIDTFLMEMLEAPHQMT
Text: (§1) The results obtained in this assay are expressed in EC50 numbers, as they are also in the chimeric receptor transactivation assay.
(§2) Efficacy in a transactivation assay is expressed as a percentage of the maximum potency attained by the compound compared to a standard which, in this case, is the compound named (2E, 4E, 1′S, 2′S)-3-methyl-5-[2′-methyl-2′-(5,5,8,8-tetramethyl-5,6,7,8-tetrahydro-naphthalen-2-yl)-cyclopropyl]-penta-2,4-dienoic acid.
(§3) Particularly, the transactivation data pertaining to activation of the RAR receptors were obtained in the chimeric assay, and the transactivation data pertaining to the activation of RXR receptors were obtained in the holoreceptor assay.

RXRβ = molecular target: T2, RXRβ (Homo sapiens, UniProt P28702); assay: holoreceptor transactivation assay, RXRβ; conditions: for RXR β transactivation efficacy as a percentage compared to the standard compound: value in parentheses, relative to standard compound of U.S. Pat. No. 6,114,533
T2 sequence (P28702 1-533): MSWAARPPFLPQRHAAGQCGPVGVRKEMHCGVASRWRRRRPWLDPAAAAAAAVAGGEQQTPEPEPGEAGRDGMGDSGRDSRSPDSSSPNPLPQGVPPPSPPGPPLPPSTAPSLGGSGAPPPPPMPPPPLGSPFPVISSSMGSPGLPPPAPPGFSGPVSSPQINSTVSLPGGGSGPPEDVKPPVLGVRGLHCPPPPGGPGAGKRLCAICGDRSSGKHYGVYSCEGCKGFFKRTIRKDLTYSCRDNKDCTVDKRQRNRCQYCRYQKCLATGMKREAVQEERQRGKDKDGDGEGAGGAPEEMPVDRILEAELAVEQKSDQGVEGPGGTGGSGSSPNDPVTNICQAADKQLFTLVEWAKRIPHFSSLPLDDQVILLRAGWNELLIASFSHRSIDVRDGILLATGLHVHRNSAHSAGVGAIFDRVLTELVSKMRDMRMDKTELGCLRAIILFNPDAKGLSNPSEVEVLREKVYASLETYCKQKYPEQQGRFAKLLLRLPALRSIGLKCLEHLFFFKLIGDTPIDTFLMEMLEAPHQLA
Text: as §1, §2, §3

RXRα [2] = molecular target: T1, RXRα; assay: ligand binding assay, RXRα
Text: The results of the ligand binding assay are expressed in Ki numbers.

RARγ = molecular target: T3, RARγ (Homo sapiens, UniProt P13631); assay: chimeric receptor transactivation assay, RARγ
T3 sequence (P13631 185-419 limits assumed): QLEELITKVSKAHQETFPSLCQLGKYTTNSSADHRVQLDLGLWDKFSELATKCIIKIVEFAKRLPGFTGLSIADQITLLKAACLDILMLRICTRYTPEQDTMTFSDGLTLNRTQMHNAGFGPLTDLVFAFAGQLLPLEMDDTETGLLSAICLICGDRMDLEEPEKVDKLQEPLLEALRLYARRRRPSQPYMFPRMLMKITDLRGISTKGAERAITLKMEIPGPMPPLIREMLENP
Text: as §2, §3

[3] = system: Female diabetic db/db mice; assay: serum glucose, triglyceride and thyroxine levels in female db/db mice
Experimental: An assay described below tests the effect of compounds of the invention on serum glucose, tryglyceride and thyroxine levels in female 9-10 weeks old db/db mice.
Female diabetic db/db (9-10 weeks old) mice were maintained on standard laboratory food and treated by oral gavage with vehicle (corn oil), standard compound (2E, 4E, 1′S, 2′S)-3-methyl-5-[2′-methyl-2′-(5,5,8,8-tetramethyl-5,6,7,8-tetrahydro-naphthalen-2-yl)-cyclopropyl]-penta-2,4-dienoic acid (5 mg/kg) or the test compound (5-100 mg/kg, as described in Table 2) daily for seven days at 8:00 AM. Blood samples (70 μ) were taken by orbital bleeding at 11:00 AM on day 0 (pre-treatment), day 3, and day 6. On day 7, a blood sample (700 μt) was taken at 11:00 AM and the animals were sacrificed. Glucose, triglyceride and thyroxine (T4) levels were determined on a Boehringer Manheim Hatachi Clinical Chemistry Analyzer using standard protocols provided by the manufacturer and reagents that were supplied in commercially available kits (glucose and T4: Boehringer Manheim; triglycerides: Roche Diagnostics).

[4] = Day 0 (pre-treatment), female db/db mice, group later given standard compound 5 mg/kg or Compound 6 50 mg/kg by oral gavage
[5] = Day 3, 3 h, oral gavage daily, standard compound 5 mg/kg, Compound 6 50 mg/kg

| Compound | EC50 (RXRα [1]) | RXR α transactivation efficacy as a percentage compared to the standard compound (RXRα [1]) | EC50 (RXRβ) | RXR β transactivation efficacy as a percentage compared to the standard compound (RXRβ) | Ki (RXRα [2]) | EC50 (RARγ) | RAR γ transactivation efficacy as a percentage compared to the standard compound (RARγ; value in parentheses, relative to standard compound of U.S. Pat. No. 6,114,533) | Glucose Day 0 [3, 4] | Triglycerides Day 0 [3, 4] | Glucose Day 3, 3 h [3, 5] | Triglycerides Day 3, 3 h [3, 5] | Glucose Day 6, 3 h ([3]; Day 6, 3 h, oral gavage daily, standard compound 5 mg/kg, Compound 6 50 mg/kg) |
| --- | --- | --- | --- | --- | --- | --- | --- | --- | --- | --- | --- | --- |
| CC(/C=C/C=C(c1cc2c(cc1O)C(C)(C)CCC2(C)C)C(F)(F)F)=C\C(=O)O (stereo in doubt) [Compound 4, (2E,4E,6Z)-8,8,8-Trifluoro-7-(3-hydroxy-5,5,8,8-tetramethyl-5,6,7,8-tetrahydro-naphthalen-2-yl)-3-methyl-octa-2,4,6-trienoic acid] | 9 nM | 65% | 67 nM | 54% | 471 nM | > 500 nM | ~30% |  |  |  |  |  |
| CCOc1cc2c(cc1\C(=C/C=C/C(C)=C/C(=O)O)C(F)(F)F)C(C)(C)CCC2(C)C [Compound 6, (2E,4E,6Z)-7-(3-Ethoxy-5,5,8,8-tetramethyl-5,6,7 8-tetrahydro-naphthalen-2-yl)-8,8,8-trifluoro-3-methyl-octa-2,4,6-trienoic acid] | 10 nM | 17% | 97 nM | 30% | 14 nM |  |  | 561 ± 159 mg/dL | 350 ± 69 mg/dL | 442 ± 164 mg/dL | 240 ± 192 mg/dL | 483 ± 175 mg/dL |
